The values that follow come from patent US8088808B2, “Substituted N-phenyl-bipyrrolidine carboxamides and therapeutic use thereof” (Sanofi, priority 2007, dated 2012).

In general, inhibition refers to the drop in the measured response relative to a control, in per cent. What is called Ki is the dissociation constant of the complex between target and ligand, obtained from inhibition or displacement.

SMILES strings stand for the structures. Structures can show the parent of a compound that is named as a salt.

The test system of assay [1] is rhesus H3. The assay can be described thus: GTPγS radioligand binding assay (inhibition of rhesus H3 constitutive functional activity in cell membranes). The following applies: Table 1; relative to basal level. The class given is biochemical, rhesus monkey (Macaca Mulatta). As for the experimental part:
(§1) Rhesus H3 membranes were prepared from the Flp-In T-REx 293 Cell Line (Invitrogen) stably transfected with pcDNA5/FRT/TO (Invitrogen) containing the rhesus monkey (Macaca Mulatta) 445 amino acid H3 receptor. (Genbank #AY231164). Stably transfected cultures were amplified in tissue culture flasks by standard tissue culture methods and induced to express rhesus H3 by exposure to 500 ng/ml tetracycline (Cellgro) for 24 hours. After induction, cells were dissociated from flasks utilizing Cell Stripper (Cellgro). Cells were centrifuged (1K×g, 5 min) and pellet frozen in an ethanol-dry ice bath to disrupt cell membranes. Frozen cell pellet was re-suspended in 5 mM HEPES (pH 7.4, Invitrogen) at 10 ml/1000 cm2 of harvested cells. The cell suspension was drawn through an 18 gauge needle (2-3×) followed by a 23 gauge needle (2-3×) to further disrupt cell membranes. The cell suspension was centrifuged (40K×g, 30 min). Cell membrane pellet was re-suspended in 5 mM HEPES (pH 7.4, Invitrogen) at a final protein concentration of 10 mg/ml. Rhesus H3 membranes were stored under liquid nitrogen prior to use in [3H]-Methylhistamine and GTPγS radioligand binding assays.

Assay [2] addresses MCH receptor (Homo sapiens, UniProt Q99705). The assay can be described thus: MCH receptor [125J]-ligand binding filtration assay. Particulars: 10 μM test compound; percent inhibition of ligand binding. As for the experimental part:
The activity of the compounds of this invention at the MCH receptor site, if any was measured by the procedures as set forth below. • Test Compounds The compounds of this invention were stored in a 96-well microtiter plates (1 μL, 10 mM, 100% DMSO). Each of the test sample was diluted with 249 μL of 100% DMSO (dilution 1:250). […] Blank: Assay buffer containing 0.4% DMSO were transferred to the dilution microtiter plates for blanks • Assay Procedure: The filter plates with […] of 0.5% PEI-solution/well were incubated for 2 hours at room temperature. PEI was removed by vacuum filtration just before pipetting (Univac Polyfiltronic/Whatman). The solution of the compound as prepared above (50 μL), or MCH ([…]) or Puffer/DMSO (positive control) were added to 96-well round bottom microtiter plate. Then 50 μl of [^125J]-ligand solution was added followed by 100 μl of membrane suspension. The plates were closed with the lids, and incubated for 60 min. at 25° C. The samples were transferred to GF/B filter plate. The reaction mixture was removed by vacuum filtration, washed 4× with 300 μL ice-cold washing buffer and the washing solution was removed by vacuum filtration. The rubber layer at the bottom of the plate was then removed and the filters were dried over night at room temperature. 25 μL of scintillation cocktail was added and the plates were sealed and, plate frames were added and incubated for 1 hour at room temperature. The radioactivity was then measured, settings ^125J standard, 30 sec./well.

In assay [3] the target is rhesus (Macaca Mulatta) H3 receptor (Macaca mulatta, UniProt Q865E1). The experiment in a line: Rhesus H3 radioligand binding assay ([3H]-Methylhistamine displacement, WGA SPA beads). Set-up: species or system rhesus monkey (Macaca Mulatta). As for the experimental part: as §1, with “(Genbank” for “Rhesus H3 membranes were prepared from the Flp-In T-REx 293 Cell Line (Invitrogen) stably transfected with pcDNA5/FRT/TO (Invitrogen) containing the rhesus monkey (Macaca Mulatta) 445 amino acid H3 receptor. (Genbank”
Rhesus H3 radioligand binding assay was performed using rhesus H3 receptor membranes (prepared as described above), [3H]-Methylhistamine (Perkin Elmer) and WGA SPA beads (wheat germ agglutinin scintillation proximity assay) beads (Amersham). The assay was performed in 96-well Opti-Plates (Packard). Each reaction contained 50 μl rhesus H3 membranes (20-30 μg total protein), 50 μl WGA SPA beads (0.1 μg) and 50 μl of 83 Ci/mmol [^3H]-Methylhistamine (final concentration 2 nM) and 50 μl of tested compound. The compounds of this invention and/or vehicle were diluted with binding buffer from 10 mM DMSO stocks. Assay plates were sealed with TopSeal (Perkin Elmer) and mixed on shaker (25° C., 1 hour). Assay plates were read on TopCount scintillation counter (Packard). Results were analyzed by Hill transformation and Ki values were determined by Cheng-Prusoff equation.

Where [4] appears, read: Table 1, [3H]-Methylhistamine 2 nM, Cheng-Prusoff.
Setting [5] is: Table 2, procedure of Example 42.

MCH receptor, sequence (Q99705 whole entry): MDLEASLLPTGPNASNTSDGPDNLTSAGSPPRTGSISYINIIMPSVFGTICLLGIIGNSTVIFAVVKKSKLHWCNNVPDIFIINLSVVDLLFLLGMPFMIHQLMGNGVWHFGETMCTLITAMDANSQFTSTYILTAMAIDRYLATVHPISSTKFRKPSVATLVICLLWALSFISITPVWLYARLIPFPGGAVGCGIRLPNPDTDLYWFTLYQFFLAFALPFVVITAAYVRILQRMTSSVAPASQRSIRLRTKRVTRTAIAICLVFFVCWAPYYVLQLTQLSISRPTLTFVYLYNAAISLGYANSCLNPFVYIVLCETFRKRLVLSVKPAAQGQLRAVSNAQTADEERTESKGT
rhesus (Macaca Mulatta) H3 receptor, sequence (Q865E1 1-445): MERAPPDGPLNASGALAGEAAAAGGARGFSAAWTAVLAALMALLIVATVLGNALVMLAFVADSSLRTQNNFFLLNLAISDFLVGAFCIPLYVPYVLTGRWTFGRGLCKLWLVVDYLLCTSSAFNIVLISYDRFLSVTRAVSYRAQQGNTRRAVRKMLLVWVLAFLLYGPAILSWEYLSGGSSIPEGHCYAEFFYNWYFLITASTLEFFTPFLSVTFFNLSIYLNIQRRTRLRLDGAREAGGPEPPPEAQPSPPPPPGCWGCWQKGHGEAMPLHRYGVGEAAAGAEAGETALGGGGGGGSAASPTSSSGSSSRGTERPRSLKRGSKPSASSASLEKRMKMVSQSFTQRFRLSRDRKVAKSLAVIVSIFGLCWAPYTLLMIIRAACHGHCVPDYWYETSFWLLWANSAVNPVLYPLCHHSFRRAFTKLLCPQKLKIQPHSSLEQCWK

As for `Cc1cc(N2CC[C@H](N3CCC[C@@H]3C)C2)ccc1NC(=O)c1ccoc1` [Example 6, Furan-3-carboxylic acid [2-methyl-4-(2S-methyl-[1,3′S]bipyrrolidinyl-1′-yl)-phenyl]-amide trifluoro-acetate], in assay [1], the “Inverse Agonism: % inhibition of Basal GTPγS binding in Rhesus H3” value is listed as −17%. In assay [2], the inhibition at 10 µM was -6.9%. Also, the Ki in assay [3] (setting [4]) and in assay [3] (setting [5]) was 1.8 nM throughout.
With `Cc1cc(N2CCC(N3CCCC3C)C2)ccc1NC(=O)C1CCOCC1` (stereo not drawn) [Example 24, Tetrahydro-pyran-4-carboxylic acid [2-methyl-4-(2-methyl[1,3′]bipyrrolidinyl-1′-yl)-phenyl]-amide trifluoroacetate], the inhibition at 10 µM in assay [2] was 8.6%. This compound yielded an inhibition constant Ki in assay [3] (setting [5]) of 6.8 nM.
Regarding `CC1CCCN1C1CCN(c2ccc(NC(=O)C3C(C)(C)C3(C)C)cc2)C1` (stereo not drawn) [Example 25, 2,2,3,3-Tetramethyl-cyclopropanecarboxylic acid [4-(2-methyl-[1,3′]bipyrrolidinyl-1′-yl)-phenyl]-amide trifluoroacetate], in assay [2], the inhibition at 10 µM is 15%. The same compound had a Ki in assay [3] (setting [5]) of 144 nM.
For the compound `Cc1noc(C)c1C(=O)Nc1ccc(N2CCC(N3CCCC3C)C2)cc1` (stereo not drawn) [Example 26, 3,5-Dimethyl-isoxazole-4-carboxylic acid [4-(2-methyl-[1,3′]bipyrrolidinyl-1′-yl)-phenyl]-amide trifluoroacetate], in assay [2], the inhibition at 10 µM amounted to 9.4%. In assay [3] (setting [5]), this compound displayed an inhibition constant (Ki) of 2.1 nM.
Taken in the same sequence, the figures for `Cc1cc(NC(=O)C2C(C)(C)C2(C)C)ccc1N1CCC(N2CCCC2C)C1` (stereo not drawn) [Example 27, 2,2,3,3-Tetramethyl-cyclopropanecarboxylic acid [3-methyl-4-(2-methyl-[1,3′]bipyrrolidinyl-1′-yl)-phenyl]-amide trifluoroacetate] were 36% and 65.5 nM.
The like results for `Cc1nc(C(=O)Nc2ccc(N3CC[C@H](N4CCC[C@@H]4C)C3)cc2C)co1` [Example 28, 2-Methyl-oxazole-4-carboxylic acid [2-methyl-4-(2(S)-methyl-[1,3′(S)]bipyrrolidinyl-1′-yl)-phenyl]-amide trifluoroacetate] were, in that order, 7% and 4.6 nM.
The like results for `CC1CCCN1C1CCN(c2ccc(NC(=O)C3C[C@@H]4CC[C@H]3C4)cc2)C1` (stereo partly drawn) [Example 29, (1S,4R)-Bicyclo[2.2.1]heptane-2-carboxylic acid [4-(2-methyl-[1,3′]bipyrrolidinyl-1′-yl)-phenyl]-amide trifluoroacetate] were, in that order, 11.4% and 15.7 nM.
`CC1CCCN1C1CCN(c2ccc(NC(=O)C3CC3)c(C(F)(F)F)c2)C1` (stereo not drawn) [Example 30, Cyclopropanecarboxylic acid [4-(2-methyl-[1,3′]bipyrrolidinyl-1′-yl)-2-trifluoromethyl-phenyl]-amide trifluoroacetate]: the inhibition at 10 µM in assay [2] came to 1.2%. Moreover, the inhibitory constant (Ki) in assay [3] (setting [5]) was 14.7 nM.
Taken in the same sequence, the figures for `Cc1cc(C(=O)Nc2ccc(N3CCC(N4CCCC4C)C3)cc2)n[nH]1` (stereo not drawn) [Example 31, 5-Methyl-1H-pyrazole-3-carboxylic acid [4-(2-methyl-[1,3′]bipyrrolidinyl-1′-yl)-phenyl]-amide trifluoroacetate] were 30.5% and 44.5 nM.
As to `Cc1cc(N2CCC(N3CCCC3C)C2)ccc1NC(=O)c1ccc(-n2ccccc2=O)o1` (stereo not drawn) [Example 32, 5-(2-Oxo-2H-pyridin-1-yl)-furan-2-carboxylic acid [2-methyl-4-(2-methyl-[1,3]bipyrrolidinyl-1′-yl)-phenyl]-amide], in assay [2], the inhibition at 10 µM worked out at 10.9%. This compound registered an inhibition constant (Ki) in assay [3] (setting [5]) of 33.3 nM.
Taken in the same sequence, the figures for `Cc1cc(N2CCC(N3CCCC3C)C2)ccc1NC(=O)c1cn[nH]c1` (stereo not drawn) [Example 33, 1H-Pyrazole-4-carboxylic acid [2-methyl-4-(2-methyl-[1,3′]bipyrrolidinyl-1′-yl)-phenyl]-amide trifluoroacetate] were 9.7% and 24.7 nM.
With `Cc1cc(NC(=O)c2cn[nH]c2)ccc1N1CCC(N2CCCC2C)C1` (stereo not drawn) [Example 34, 1H-Pyrazole-4-carboxylic acid [3-methyl-4-(2-methyl-[1,3′]bipyrrolidinyl-1′-yl)-phenyl]-amide trifluoroacetate], the inhibition at 10 µM in assay [2] is 16.8%. In addition, the inhibition constant (Ki) in assay [3] (setting [5]) worked out at 126 nM.
For the compound `Cc1cc(C(=O)Nc2ccc(N3CCC(N4CCCC4C)C3)cc2C(F)(F)F)n[nH]1` (stereo not drawn) [Example 35, 5-Methyl-1H-pyrazole-3-carboxylic acid [4-(2-methyl-[1,3′]bipyrrolidinyl-1′-yl)-2-trifluoromethyl-phenyl]-amide trifluoroacetate], the inhibition at 10 µM in assay [2] was determined as 23.5%. Besides, the Ki in assay [3] (setting [5]) was 307 nM.
As to `CC1CCCN1C1CCN(c2ccc(NC(=O)CC3CCCC3)cc2)C1` (stereo not drawn) [Example 36, 2-Cyclopentyl-N-[4-(2-methyl-[1,3′]bipyrrolidinyl-1′-yl)-phenyl]-acetamide trifluoroacetate], the “Inverse Agonism: % inhibition of Basal GTPγS binding in Rhesus H3” value in assay [1] is −33%. For the same compound, the inhibition at 10 µM in assay [2] was 0.7%. Besides, the inhibition constant (Ki) in assay [3] (setting [4]) stood at 3.14 nM; in assay [3] (setting [5]), 3.1 nM.
Take `Cc1cc(N2CCC(N3CCCC3C)C2)ccc1NC(=O)c1cc(-c2ccncc2)n[nH]1` (stereo not drawn) [Example 37, 5-Pyridin-4-yl-2H-pyrazole-3-carboxylic acid [2-methyl-4-(2-methyl-[1,3′]bipyrrolidinyl-1′-yl)-phenyl]-amide trifluoroacetate]: in assay [2], the inhibition at 10 µM worked out at 34.4%. In assay [3] (setting [5]), this compound had an inhibition constant (Ki) of 14.2 nM.
Taken in the same sequence, the figures for `Cc1cc(NC(=O)CC2CCCC2)ccc1N1CCC(N2CCCC2C)C1` (stereo not drawn) [Example 38, 2-Cyclopentyl-N-[3-methyl-4-(2-methyl-[1,3′]bipyrrolidinyl-1′-yl)-phenyl]-acetamide trifluoroacetate] were 3.7% and 10.7 nM.
Turning to `Cc1cc(N2CC[C@H](N3CCC[C@@H]3C)C2)ccc1NC(=O)C1CCCC1` [Example 39, Cyclopentane carboxylic acid [2-methyl-4-(2(S)-methyl-[1,3′ (S)]bipyrrolidinyl-1′-yl)-phenyl]-amide trifluoroacetate], in assay [2], the inhibition at 10 µM is -7.2%. In assay [3] (setting [5]), the affinity corresponds to a Ki of 0.5 nM.
As for `CC1CCCN1C1CCN(c2ccc(NC(=O)C3CC3)cc2)C1` (stereo not drawn) [Example 40, Cyclopropanecarboxylic acid [4-(2-methyl-[1,3′]bipyrrolidinyl-1′-yl)-phenyl]-amide trifluoroacetate], the inhibition at 10 µM in assay [2] was -3.4%. In assay [3] (setting [5]), this compound had a Ki of 9.7 nM.
The like results for `Cc1cc(NC(=O)C2CC2)ccc1N1CCC(N2CCCC2C)C1` (stereo not drawn) [Example 41, Cyclopropanecarboxylic acid [3-methyl-4-(2-methyl[1,3′]bipyrrolidinyl-1′-yl)-phenyl]-amide trifluoroacetate] were, in that order, -1.3% and 17.7 nM.
